Results: patent US5648336A (University of Colorado, priority 1994, dated 1997)
Where two headings read alike, the source gives them in different places. Square brackets hold non-standard residues; d marks the D form. Peptide text beside a SMILES is read from it. Oic = O=C(O)[C@@H]1C[C@@H]2CCCC[C@@H]2N1; dIgl = N[C@@H](C(=O)O)C1Cc2ccccc2C1; Igl = N[C@H](C(=O)O)C1Cc2ccccc2C1; Hyp = O=C(O)[C@@H]1C[C@@H](O)CN1; NMeF = CN[C@@H](Cc1ccccc1)C(=O)O; 2Thi = N[C@@H](Cc1cccs1)C(=O)O

Legend:
B1 receptors = target: T1, B1 receptors (Oryctolagus cuniculus, UniProt P48748); test: B1 receptor bioassay, rabbit aorta strips contracted with des-Arg9-BK; type: cell-based; settings: 50% reduction of sustained contraction to 10^-7 M des-Arg9-BK; read-out: Rabbit Aorta p IC50 B1 receptors (converted)
T1 construct: The thorax was opened and the thoracic aorta carefully removed; from tissue; host or cells: rabbit thoracic aorta spiral strips
T1 sequence (P48748 1-352): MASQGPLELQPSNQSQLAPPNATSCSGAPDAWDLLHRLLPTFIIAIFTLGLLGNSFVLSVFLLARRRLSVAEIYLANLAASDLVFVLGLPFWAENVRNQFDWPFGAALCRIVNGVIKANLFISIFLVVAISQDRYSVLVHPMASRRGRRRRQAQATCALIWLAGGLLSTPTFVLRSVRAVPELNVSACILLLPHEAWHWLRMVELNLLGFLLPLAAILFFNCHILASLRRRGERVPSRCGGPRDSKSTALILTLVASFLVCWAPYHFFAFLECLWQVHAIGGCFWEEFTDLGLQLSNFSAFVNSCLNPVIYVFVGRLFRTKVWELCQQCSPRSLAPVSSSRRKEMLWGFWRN
Method: Male New Zealand white rabbits, weight range 2-3 kg, were killed by an overdose of pentobarbital i.v. The thorax was opened and the thoracic aorta carefully removed. […] The tissues were placed under 1 gm isometric tension and allowed to equilibrate for 1H. At time 1h, a concentration-effect curve was constructed to the selective B1 agonist des-Arg^9 -BK. This was repeated at time 3 hours. […] Once the contraction was sustained, the compound to be assayed was applied to the tissue bath in a cumulative manner. The concentration of the compound which produced a 50% reduction of the sustained contraction was calculated. The negative logarithm of this concentration was calculated and expressed as the […].

Human B2 receptors = target: T2, Human B2 receptors (Homo sapiens, UniProt P30411); test: Human B2 binding, cloned receptor in CHO cell membranes, 3H-bradykinin
T2 construct: expressed in transfected cells; membranes used
T2 sequence (P30411 1-364 isoform P30411-2): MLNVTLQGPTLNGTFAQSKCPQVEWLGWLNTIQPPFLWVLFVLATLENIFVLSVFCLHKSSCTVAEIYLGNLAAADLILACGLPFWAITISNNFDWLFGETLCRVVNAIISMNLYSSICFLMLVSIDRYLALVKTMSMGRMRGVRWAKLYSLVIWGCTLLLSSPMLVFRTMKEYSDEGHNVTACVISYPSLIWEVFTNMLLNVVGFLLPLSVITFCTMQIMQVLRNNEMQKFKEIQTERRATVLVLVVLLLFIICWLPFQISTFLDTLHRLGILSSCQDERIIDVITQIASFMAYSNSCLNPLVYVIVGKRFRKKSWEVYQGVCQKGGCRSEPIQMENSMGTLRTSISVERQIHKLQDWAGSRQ
Excerpt: Human B2 receptors were cloned and expressed in Chinese hamster ovary cells. RNA was isolated from human lung fibroblasts (CCD-16 LU obtained from the ATCC) using the method of Chirgwin et al (Biochemistry 18:5294 (1979)). The RNA was transcribed into cDNA using MMLV reverse transcriptase, the primer […] and the procedure of Maniatis (Molecular Cloning Cold Spring Harbor Laboratory (1982)). The human B2 receptor cDNA was selectively amplified using nested PCR. The first round PCR used the two primers […] and […] and Taq DNA polymerase (Promega). Twenty-five rounds of PCR were done using the following conditions: 94° C., 1 minute for denaturation, 50° C., 1 minute for annealing followed by 72° C., 3 minutes for extension. Excess primers were removed with a Centricon 30 miniconcentrator. A portion of this first round reaction was used as a template in a second round of PCR using the following primers […] and […]. The number of rounds of PCR and the conditions were the same as those used for the first round. The DNA obtained after this second round was digested with the restriction enzymes Hind III and Xba I using standard methodology. Cesium chloride-purified pRc/CMV (Invitrogen) was also digested with Hind III and Xba I using standard methodology. The products of the two digests were resolved on a 1% low melt agarose gel. The human B2 receptor DNA (approximately 1.1 kb) and the pRc/CMV DNA (approximately 5.5 kb) were excised from the gel. The gel slices containing these DNAs were heated at 65° C. and aliquots combined in a reaction containing T4 DNA ligase. The reaction was incubated overnight at 15° C.
An aliquot of this reaction was used to transform frozen competent E. coli DH5α cells (GibcoBRL). Transformants containing the human B2 receptor DNA were selected on LB+amp plates. One of the transformants was selected and the sequence of the human B2 receptor DNA insert determined using the Sequenase enzyme (United States Biochemical) according to the manufacturer's instructions. This sequence was compared to the sequence of Hess et al (Biochemical and Biophysical Research Communications 184:260 1992)). […] The human BK2 receptor-pRc/CMV plasmid was transfected into CHO-k1 cells using the Lipofectamine reagent (GibcoBRL).
Cells containing the receptor were grown to confluence and harvested by scraping into PBS and homogenized. Membranes were prepared by centrifugation in 25 mM TES pH6.8 containing 1 mM 1.10 Phenanthroline. The final pellet was resuspended in assay buffer (25 mM TES, 1 mM 1.10 Phenanthroline, 1 mM DTT, […] Captopril, 0.1% BSA pH=6.8) and frozen. […] Incubation was carried out at room temperature for 45 min. The assay was terminated by filtration through a polyethylenimine soaked G-A filter. Radioactivity was measured on a Wallac 1450 MicroBeta LSC.
The Kd for the receptor was determined by kinetic analysis of on and off rates utilizing a single exponential decay off rate. Ki 's for compounds were calculated using the following equation: Ki =IC50 /(1+[L]/Kd), where L=free ligand concentration.

guinea pig ileum = test system: guinea pig ileum
Excerpt: (§1) A change of one unit of pA2 value represents an order of magnitude change in potency.
(§2) On isolated smooth muscles, agonist potency is given as percent of BK potency; antagonist potency is given as pA2, and is underlined. In blood pressure assays, the number is the dose of peptide in micrograms that causes 50% reduction in the effect of BK intraarterially administered as a bolus mixture in a 500 g male rat; Ag indicates unquantitated agonist activity; Ant indicates unquantitated antagonist activity.

isolated rat uterus = test system: isolated rat uterus
Excerpt: as §1, §2

[1] = CHO clone S34f membranes, 0.3 nM 3H-Bradykinin, room temperature 45 min, read-out: Human Receptor Clone B2 receptor binding (Ki) (converted)

Row | SMILES | IC50 (B1 receptors) [nM] | Ki (Human B2 receptors; [1]) [nM] | Ileum Activity, antagonist potency given as pA2 (guinea pig ileum) | Uterus Activity, antagonist potency given as pA2 (isolated rat uterus) | Ki (Human B2 receptors) [nM]
1 | CN(C(=O)[C@H](CCCNC(=N)N)NC(=O)[C@H](N)CCCNC(=N)N)[C@@H](Cc1ccccc1)C(=O)N1C[C@H](O)C[C@H]1C(=O)NCC(=O)N[C@H](C(=O)N[C@@H](CO)C(=O)N[C@@H](C(=O)N1[C@H](C(=O)N[C@@H](CCCNC(=N)N)C(=O)O)C[C@@H]2CCCC[C@@H]21)C1Cc2ccccc2C1)C1Cc2ccccc2C1 [Compound 45, DArg-Arg-NMF-Hyp-Gly-Iglb-Ser-DIglb-Oic-Arg] (H-[dR]R[NMeF][Hyp]G[Igl]S[dIgl][Oic]R-OH) | 2880 | 0.141 | – | – | –
2 | N=C(N)NCCC[C@H](NC(=O)[C@@H]1C[C@@H]2CCCC[C@@H]2N1C(=O)[C@H](NC(=O)[C@H](CO)NC(=O)[C@@H](NC(=O)CNC(=O)[C@@H]1C[C@@H](O)CN1C(=O)[C@@H]1CCCN1C(=O)[C@H](CCCNC(=N)N)NC(=O)[C@@H](CCCNC(=N)N)NC(=O)C1=CN2CCC1CC2)C1Cc2ccccc2C1)C1Cc2ccccc2C1)C(=O)O [Compound 3, Dhg-DArg-Arg-Pro-Hyp-Gly-Iglb-Ser-DIg lb-Oic-Arg] | 1170 | 0.00141 | 7.6 | 7.4 | –
3 | Cc1ccc(C[C@@H](NC(=O)CNC(=O)[C@@H]2C[C@@H](O)CN2C(=O)[C@@H]2CCCN2C(=O)[C@H](CCCNC(=N)N)NC(=O)[C@H](N)CCCNC(=N)N)C(=O)N[C@@H](CO)C(=O)N[C@@H](C(=O)N2[C@H](C(=O)N[C@@H](CCCNC(=N)N)C(=O)O)C[C@@H]3CCCC[C@@H]32)C2Cc3ccccc3C2)c(C)c1 [Compound 27, DArg-Arg-Pro-Hyp-Gly-DDMF-Ser-DIglb-Oic-Arg] | > 10000 | 0.178 | 6.9 | 8.0 | –
4 | N=C(N)NCCC[C@H](NC(=O)[C@@H]1C[C@@H]2CCCC[C@@H]2N1C(=O)[C@H](NC(=O)[C@H](CO)NC(=O)[C@@H](NC(=O)CNC(=O)[C@@H]1C[C@@H](O)CN1C(=O)[C@@H]1CCCN1C(=O)[C@H](CCCNC(=N)N)NC(=O)[C@@H](CCCNC(=N)N)NC(=O)C12CC3CC(CC(C3)C1)C2)C1Cc2ccccc2C1)C1Cc2ccccc2C1)C(=O)O [Compound 2, Aca-DArg-Arg-Pro-Hyp-Gly-Iglb-Ser-DIg lb-Oic-Arg] | 1780 | 0.0447 | 7.8 | 7.5 | –
5 | N=C(N)NCCC[C@H](NC(=O)[C@@H]1C[C@@H]2CCCC[C@@H]2N1C(=O)[C@H](NC(=O)[C@H](CO)NC(=O)[C@H](Cc1cccs1)NC(=O)CNC(=O)[C@@H]1C[C@@H](O)CN1C(=O)[C@@H]1CCCN1C(=O)[C@H](CCCNC(=N)N)NC(=O)[C@@H](CCCNC(=N)N)NC(=O)CC12CC3CC(CC(C3)C1)C2)C1Cc2ccccc2C1)C(=O)O [Compound 56, Aaa-DArg-Arg-Pro-Hyp-Gly-Thi-Ser-DIglb-Oic-Arg] | 692 | 0.398 | 7.8 | 7.7 | –
6 | N=C(N)NCCC[C@@H](N)C(=O)N[C@@H](CCCNC(=N)N)C(=O)N1CCC[C@H]1C(=O)N1C[C@H](O)C[C@H]1C(=O)NCC(=O)N[C@@H](Cc1cccs1)C(=O)N[C@@H](CO)C(=O)N(CC(=O)N1[C@H](C(=O)N[C@@H](CCCNC(=N)N)C(=O)O)C[C@@H]2CCCC[C@@H]21)C1Cc2ccccc2C1 [Compound 16, DArg-Arg-Pro-Hyp-Gly-Thi-Ser-Nigb-Oic-Arg] | – | 0.309 | 7.0 | 6.8 | –
7 | N=C(N)NCCC[C@@H](N)C(=O)N[C@@H](CCCNC(=N)N)C(=O)N1CCC[C@H]1C(=O)N1C[C@H](O)C[C@H]1C(=O)NCC(=O)N[C@H](Cc1cccs1)C(=O)N[C@@H](CO)C(=O)N[C@@H](C(=O)N1[C@H](C(=O)N[C@@H](CCCNC(=N)N)C(=O)O)C[C@@H]2CCCC[C@@H]21)C1Cc2ccccc2C1 [Compound 31, DArg-Arg-Pro-Hyp-Gly-DThi-Ser-DIglb-Oic-Arg] | > 10000 | – | – | – | 0.01
8 | N=C(N)NCCC[C@@H](N)C(=O)N[C@@H](CCCNC(=N)N)C(=O)N1CCC[C@H]1C(=O)N1C[C@H](O)C[C@H]1C(=O)NCC(=O)N[C@@H](Cc1cccs1)C(=O)N[C@@H](CO)C(=O)N1Cc2ccccc2C[C@@H]1C(=O)N(CC(=O)N[C@@H](CCCNC(=N)N)C(=O)O)C1Cc2ccccc2C1 [Compound 23, DArg-Arg-Pro-Hyp-Gly-Thi-Ser-DTic-Nigb-Arg] | > 10000 | 0.0158 | 7.2 | 8.3 | –
9 | N=C(N)NCCC[C@@H](N)C(=O)N[C@@H](CCCNC(=N)N)C(=O)N1CCC[C@H]1C(=O)N1C[C@H](O)C[C@H]1C(=O)NCC(=O)N[C@@H](Cc1cccs1)C(=O)N[C@@H](CO)C(=O)N[C@@H](C(=O)N1Cc2ccccc2C[C@H]1C(=O)N[C@@H](CCCNC(=N)N)C(=O)O)C1Cc2ccccc2C1 [Compound 22, DArg-Arg-Pro-Hyp-Gly-Thi-Ser-DIglb-Tic-Arg] | 1780 | 0.0126 | 6.8 | 7.0 | –
10 | N=C(N)NCCC[C@H](NC(=O)[C@@H]1C[C@@H]2CCCC[C@@H]2N1C(=O)[C@H](NC(=O)[C@H](CO)NC(=O)[C@H](Cc1cccs1)NC(=O)CNC(=O)[C@@H]1C[C@@H](O)CN1C(=O)[C@@H]1CCCN1C(=O)[C@@H](N)CCCNC(=N)N)C1Cc2ccccc2C1)C(=O)O [Compound 5, Arg-Pro-Hyp-Gly-Thi-Ser-DIglb-Oic-Arg] (H-RP[Hyp]G[2Thi]S[dIgl][Oic]R-OH) | 1550 | 0.0692 | 7.7 | – | –
11 | N=C(N)NCCC[C@H](NC(=O)[C@@H]1C[C@@H]2CCCC[C@@H]2N1C(=O)[C@H](NC(=O)[C@H](COS(=O)(=O)O)NC(=O)[C@H](Cc1cccs1)NC(=O)CNC(=O)[C@@H]1C[C@@H](O)CN1C(=O)[C@@H]1CCCN1C(=O)[C@H](CCCNC(=N)N)NC(=O)[C@@H](CCCNC(=N)N)NC(=O)C12CC3CC(CC(C3)C1)C2)C1Cc2ccccc2C1)C(=O)O [Compound 61, Aca-DArg-Arg-Pro-Hyp-Gly-Thi-Ser(SO)-DIglb-Oic-Arg] | 4170 | 4.07 | 7.5 | – | –
